Results: patent US5482957A, “Azole derivatives, process for their preparation and their use” (Hoechst Aktiengesellschaft, priority 1991, dated 1996)

These compounds were tested against angiotensin II receptor (assay: Displacement of 125I- or 3H-angiotensin II from receptor preparations from various organs (liver, lung, adrenal gland, brain etc.)). Conditions: Table 1; radioligand displacement, 25° C., 90 min, pH 7.4.
Type: binding
Protocol: Alternatively, the affinity of the compounds of the formula I for the angiotensin II receptor can be determined by measurement of the ^125 I-angiotensin II or ^3 H-angiotensin II displacement of receptor preparations from various organs (liver, lung, adrenal gland, brain etc.).
To this end, the prepared membranes are suspended in an incubation buffer ([…], pH 7.4, containing 135 mM NaCl, 10 mM KCl, 10 mM MgCl2, 5 mM glucose, 0.2% bovine serum albumin and the protease inhibitors PMSF, 0.3 mM, and bacitracin, 0.1 mM) and incubated at 25° C. for 90 min together with the radioactively labeled angiotensin II and various concentrations of the compounds to be tested. Bound and free radioligand are then separated by filtration through micro glass fiber filters (GF51, Schleicher and Schull) in a cell collector (SKATRON).
The degree of displacement of the radioligand from the receptor by the test compounds is determined by measurement of the receptor-bound radioactivity on the filters by means of a beta- or gamma-spectrometer. The amount of the displacement of the radioligand from the receptor by the test compounds is indicated by the IC50, i.e. the concentration of the inhibitor which displaces 50% of the bound radioligand from the receptor. The calculation of the IC50 values is carried out by means of PC software (LIGAND, G. A. McPherson 1985, Elsevier BIOSOFT, 68 Hills Road, Cambridge, CB2 1LA, UK.).

Row | IC50 [nM] | Structure (SMILES)
1 | 1.1 | C=CCN(CC=C)C(=O)NS(=O)(=O)c1ccccc1-c1ccc(Cn2c(CCCC)nc(SC)c2C(=O)O)cc1 [Example 61]
2 | 3.6 | CCCCc1nc(SC)c(C(=O)O)n1Cc1ccc(-c2ccccc2S(=O)(=O)NC(=O)NCCC2=CCCCC2)cc1 [Example 62]
3 | 0.5 | C#CCNC(=O)NS(=O)(=O)c1ccccc1-c1ccc(Cn2c(CCCC)nc(SC)c2C(=O)O)cc1 [Example 64]
4 | 1.8 | CCCCc1nc(SC)c(C(=O)OCC)n1Cc1ccc(-c2ccccc2S(=O)(=O)NC(=O)NCCc2ccccn2)cc1 [Example 65]
5 | 6.9 | CCCCc1nc(SC)c(C(=O)OCC)n1Cc1ccc(-c2ccccc2S(=O)(=O)NC(=O)NCCc2ccccc2)cc1 [Example 66]
6 | 0.91 | CCCCc1nc(SC)c(C(=O)O)n1Cc1ccc(-c2ccccc2S(=O)(=O)NC(=O)NCCc2ccccc2)cc1 [Example 67]
7 | 12 | CCCCc1nc(SC)c(C(=O)OCC)n1Cc1ccc(-c2ccccc2S(=O)(=O)NC(=O)N[C@H](C(=O)OC)C(C)CC)cc1 (stereo partly drawn) [Example 68]
8 | 3.2 | CCCCc1nc(SC)c(C(=O)OCC)n1Cc1ccc(-c2ccccc2S(=O)(=O)NC(=O)N[C@H](C(=O)OC)C(C)C)cc1 [Example 69]
9 | 2.2 | CCCCc1nc(SC)c(C(=O)OCC)n1Cc1ccc(-c2ccccc2S(=O)(=O)NC(=O)NCC(=O)OC)cc1 [Example 71]
10 | 2.5 | CCCCc1nc(SC)c(C(=O)OCC)n1Cc1ccc(-c2ccccc2S(=O)(=O)NC(=O)NCc2ccccc2)cc1 [Example 73]
11 | 9.5 | CCCCc1nc(SC)c(C(=O)OCC)n1Cc1ccc(-c2ccccc2S(=O)(=O)NC(=O)NCCCc2ccccc2)cc1 [Example 76]
12 | 5.8 | CCCCc1nc(SC)c(C(=O)O)n1Cc1ccc(-c2ccccc2S(=O)(=O)NC(=O)NCCc2cccc(C(F)(F)F)c2)cc1 [Example 79]
13 | 0.69 | CCCCc1nc(SC)c(C(=O)O)n1Cc1ccc(-c2ccccc2S(=O)(=O)NC(=O)NCc2ccccc2)cc1 [Example 80]
14 | 0.79 | CCCCc1nc(SC)c(C(=O)O)n1Cc1ccc(-c2ccccc2S(=O)(=O)NC(=O)NCCCc2ccccc2)cc1 [Example 81]
15 | 0.96 | CCCCc1nc(SC)c(C(=O)O)n1Cc1ccc(-c2ccccc2S(=O)(=O)NC(=O)NCc2ccccc2OC)cc1 [Example 83]
16 | 4.3 | CCCCc1nc(SC)c(C(=O)OCC)n1Cc1ccc(-c2ccccc2S(=O)(=O)NC(=O)NCc2ccccc2OC)cc1 [Example 84]
17 | 3.9 | CCCCc1nc(SC)c(C(=O)OCC)n1Cc1ccc(-c2ccccc2S(=O)(=O)NC(=O)NCc2cccc(OC)c2)cc1 [Example 85]
18 | 1.1 | CCCCc1nc(SC)c(C(=O)O)n1Cc1ccc(-c2ccccc2S(=O)(=O)NC(=O)NCc2ccc(OC)c(OC)c2)cc1 [Example 89]
19 | 0.69 | CCCCc1nc(SC)c(C(=O)O)n1Cc1ccc(-c2ccccc2S(=O)(=O)NC(=O)NCc2ccc(OC)cc2)cc1 [Example 90]
20 | 280 | CCCCc1nc(SC)c(C(=O)OCC)n1Cc1ccc(-c2ccccc2S(=O)(=O)NC(=O)NCc2ccc(OC)c(OC)c2)cc1 [Example 92]
21 | 1.8 | CCCCc1nc(SC)c(C(=O)OCC)n1Cc1ccc(-c2ccccc2S(=O)(=O)NC(=O)NC(C)c2ccccc2)cc1 (stereo not drawn) [Example 95]
22 | 1.4 | CCCCc1nc(SC)c(C(=O)O)n1Cc1ccc(-c2ccccc2S(=O)(=O)NC(=O)N[C@@H](Cc2ccccc2)C(=O)O)cc1 [Example 98]
23 | 26.6 | CCCCc1nc(SC)c(C(=O)OCC)n1Cc1ccc(-c2ccccc2S(=O)(=O)NC(=O)Nc2ccccc2)cc1 [Example 99]
24 | 68.5 | CCCCc1nc(SC)c(C(=O)OCC)n1Cc1ccc(-c2ccccc2S(=O)(=O)NC(=O)Nc2ccc(F)cc2)cc1 [Example 100]

Continued, compound first:

Row | Structure (SMILES) | IC50 [nM]
25 | CCCCc1nc(Cl)c(C=O)n1Cc1ccc(-c2ccccc2S(=O)(=O)NC(=O)Nc2ccccc2)cc1 [Example 1, 1-[(2'-phenylaminocarbonylaminosulfonylbiphenyl-4-yl)methyl]-2-n-butyl-4-chloroimidazole-5-carboxaldehyde] | 5000
26 | CCCCc1nc(Cl)c(C=O)n1Cc1ccc(-c2ccccc2S(=O)(=O)NC(=O)NCCC)cc1 [Example 2, 1-[(2'-n-propylaminocarbonylaminosulfonylbiphenyl-4-yl)methyl]-2-n-butyl-4-chloroimidazole-5-carboxaldehyde] | 8000
27 | CCCCc1nc(Cl)c(C=O)n1Cc1ccc(-c2cccc(S(=O)(=O)NC(=O)Nc3ncccn3)c2)cc1 [Example 4] | 1100
28 | CCCCc1nc(Cl)c(C=O)n1Cc1ccc(-c2cccc(S(=O)(=O)NC(=O)Nc3nnn[nH]3)c2)cc1 [Example 5] | 16000
29 | CCCCc1nc(Cl)c(C=O)n1Cc1ccc(-c2ccccc2S(=O)(=O)NC(=O)Nc2ccc([N+](=O)[O-])cc2)cc1 [Example 22] | 2000
30 | CCCCc1nc(Cl)c(C=O)n1Cc1ccc(-c2ccccc2S(=O)(=O)NC(=O)Nc2ccccc2F)cc1 [Example 24] | 800
31 | CCCCc1nc(Cl)c(C=O)n1Cc1ccc(-c2ccccc2S(=O)(=O)NC(=O)Nc2ccc(F)cc2)cc1 [Example 25] | 1400
32 | CCCCc1nc(Cl)c(C=O)n1Cc1ccc(-c2ccccc2S(=O)(=O)NC(=O)NCCc2ccccn2)cc1 [Example 29] | 1.1
33 | CCCCc1nc(Cl)c(C=O)n1Cc1ccc(-c2ccccc2S(=O)(=O)NC(=O)NCCN2CCCCC2)cc1 [Example 30] | 2030
34 | CCCCc1nc(Cl)c(C=O)n1Cc1ccc(-c2ccccc2S(=O)(=O)NC(=O)NC2CN3CCC2CC3)cc1 (stereo not drawn) [Example 31] | 153
35 | CCCCc1nc(Cl)c(C=O)n1Cc1ccc(-c2ccccc2S(=O)(=O)NC(=O)Nc2nc(C)cs2)cc1 [Example 32] | 3.5
36 | CCCCc1nc(Cl)c(C=O)n1Cc1ccc(-c2ccccc2S(=O)(=O)NC(=O)Nc2ccccc2OC)cc1 [Example 33] | 34
37 | CCCCc1nc(Cl)c(C=O)n1Cc1ccc(-c2ccccc2S(=O)(=O)NC(=O)NCc2ccc(OC)cc2)cc1 [Example 34] | 1
38 | CCCCc1nc(Cl)c(C=O)n1Cc1ccc(-c2ccccc2S(=O)(=O)NC(=O)Nc2ccc(C)cc2)cc1 [Example 35] | 50
39 | CCCCc1nc(Cl)c(C=O)n1Cc1ccc(-c2ccccc2S(=O)(=O)NC(=O)Nc2ccccc2C)cc1 [Example 36] | 16
40 | CCCCc1nc(Cl)c(C=O)n1Cc1ccc(-c2ccccc2S(=O)(=O)NC(=O)NCCc2ccccc2)cc1 [Example 37] | 1.1
41 | C=CCNC(=O)NS(=O)(=O)c1ccccc1-c1ccc(Cn2c(CCCC)nc(Cl)c2C=O)cc1 [Example 55, 1-[(2'-allylaminocarbonylaminosulfonylbiphenyl-4-yl)methyl]-2-n-butyl-4-chloroimidazole-5-carboxaldehyde] | 8.8
42 | C=CCNC(=O)NS(=O)(=O)c1ccccc1-c1ccc(Cn2c(CCCC)nc(SC)c2C(=O)O)cc1 [Example 56, 1-[(2'-allylaminocarbonylaminosulfonylbiphenyl-4-yl)methyl]-2-n-butyl-4-methylthioimidazole-5-carboxylic acid] | 4.6
43 | C=CCNC(=O)NS(=O)(=O)c1ccccc1-c1ccc(Cn2c(CCCC)nc(SC)c2C(=O)OCC)cc1 [Example 58] | 3
44 | CCCCc1nc(SC)c(C(=O)O)n1Cc1ccc(-c2ccccc2S(=O)(=O)NC(=O)NC2CCCCC2)cc1 [Example 59] | 1.3
45 | CCCCc1nc(SC)c(C(=O)O)n1Cc1ccc(-c2ccccc2S(=O)(=O)NC(=O)NCC2CCCCC2)cc1 [Example 60] | 2.2
